Laboratory results from PubChem BioAssay (NCI).
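Values below derive from 48-hour exposures of cells grown in 96-well plates, with endpoints linearly interpolated between the two concentrations bracketing the appropriate inhibition level. GI50: concentration for 50% inhibition of growth. TGI marks complete inhibition of growth.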

Key:
Assay in all cases: inhibition of tumour cell growth, NCI panel, 48 h
SNB-75 CNS = tested on: SNB-75 CNS
SK-MEL-28 melanoma = tested on: SK-MEL-28 melanoma
PC-3 prostate = tested on: PC-3 prostate
SNB-19 CNS = tested on: SNB-19 CNS
RXF 393 renal = tested on: RXF 393 renal
NCI-H460 lung = tested on: NCI-H460 lung
SK-MEL-2 melanoma = tested on: SK-MEL-2 melanoma
EKVX NSCLC = tested on: EKVX NSCLC
HCT-116 colon = tested on: HCT-116 colon
NCI-H23 lung = tested on: NCI-H23 lung
SK-OV-3 ovarian = tested on: SK-OV-3 ovarian
CAKI-1 renal = tested on: CAKI-1 renal
TK-10 renal = tested on: TK-10 renal
T-47D breast = tested on: T-47D breast
OVCAR-3 ovarian = tested on: OVCAR-3 ovarian
HOP-62 NSCLC = tested on: HOP-62 NSCLC
786-0 renal = tested on: 786-0 renal
HOP-92 NSCLC = tested on: HOP-92 NSCLC
UACC-257 melanoma = tested on: UACC-257 melanoma
M14 melanoma = tested on: M14 melanoma
DU-145 prostate = tested on: DU-145 prostate
SK-MEL-5 melanoma = tested on: SK-MEL-5 melanoma
A498 renal = tested on: A498 renal
COLO 205 colon = tested on: COLO 205 colon
SF-295 CNS = tested on: SF-295 CNS
ACHN renal = tested on: ACHN renal
OVCAR-4 ovarian = tested on: OVCAR-4 ovarian
HCT-15 colon = tested on: HCT-15 colon
SF-268 CNS = tested on: SF-268 CNS
HCC-2998 colon = tested on: HCC-2998 colon
U251 CNS = tested on: U251 CNS
MCF7 breast = tested on: MCF7 breast
UO-31 renal = tested on: UO-31 renal
K-562 leukemia = tested on: K-562 leukemia
BT-549 breast = tested on: BT-549 breast
NCI-H226 lung = tested on: NCI-H226 lung
UACC-62 melanoma = tested on: UACC-62 melanoma
NCI/ADR-RES ovarian = tested on: NCI/ADR-RES ovarian
MDA-MB-231 breast = tested on: MDA-MB-231 breast
OVCAR-5 ovarian = tested on: OVCAR-5 ovarian
MDA-MB-435 = tested on: MDA-MB-435
A549 NSCLC = tested on: A549 NSCLC
SW-620 colon = tested on: SW-620 colon
LOX IMVI melanoma = tested on: LOX IMVI melanoma
KM12 colon = tested on: KM12 colon
RPMI-8226 leukemia = tested on: RPMI-8226 leukemia
CCRF-CEM leukemia = tested on: CCRF-CEM leukemia

CN(C)C1(N(C)C)Oc2c(c(=O)n(C)c(=O)n2C)C(c2ccc(C(F)(F)F)cc2)C1(F)F (configuration not stated)
TGI (SNB-75 CNS): > 100000 nM
TGI (SK-MEL-28 melanoma): > 100000 nM
TGI (PC-3 prostate): > 100000 nM
TGI (SNB-19 CNS): > 100000 nM
TGI (RXF 393 renal): > 100000 nM
TGI (NCI-H460 lung): > 100000 nM
TGI (SK-MEL-2 melanoma): > 100000 nM
TGI (EKVX NSCLC): > 100000 nM
TGI (HCT-116 colon): > 100000 nM
TGI (NCI-H23 lung): > 100000 nM
TGI (SK-OV-3 ovarian): > 100000 nM
TGI (CAKI-1 renal): > 100000 nM
TGI (TK-10 renal): > 100000 nM
TGI (T-47D breast): > 100000 nM
TGI (OVCAR-3 ovarian): > 100000 nM
TGI (HOP-62 NSCLC): > 100000 nM
TGI (786-0 renal): > 100000 nM
TGI (HOP-92 NSCLC): > 100000 nM
TGI (UACC-257 melanoma): > 100000 nM
TGI (M14 melanoma): > 100000 nM
TGI (DU-145 prostate): > 100000 nM
TGI (SK-MEL-5 melanoma): > 100000 nM
TGI (A498 renal): > 100000 nM
TGI (COLO 205 colon): > 100000 nM
TGI (SF-295 CNS): > 100000 nM
TGI (ACHN renal): > 100000 nM
TGI (OVCAR-4 ovarian): > 100000 nM
TGI (HCT-15 colon): > 100000 nM
TGI (SF-268 CNS): > 100000 nM
TGI (HCC-2998 colon): > 100000 nM
TGI (U251 CNS): > 100000 nM
TGI (MCF7 breast): > 100000 nM
TGI (UO-31 renal): > 100000 nM
TGI (K-562 leukemia): > 100000 nM
TGI (BT-549 breast): > 100000 nM
TGI (NCI-H226 lung): > 100000 nM
TGI (UACC-62 melanoma): > 100000 nM
TGI (NCI/ADR-RES ovarian): > 100000 nM
TGI (MDA-MB-231 breast): > 100000 nM
TGI (OVCAR-5 ovarian): > 100000 nM
TGI (MDA-MB-435): > 100000 nM
TGI (A549 NSCLC): > 100000 nM
TGI (SW-620 colon): > 100000 nM
TGI (LOX IMVI melanoma): > 100000 nM
TGI (KM12 colon): > 100000 nM
TGI (RPMI-8226 leukemia): > 100000 nM
TGI (CCRF-CEM leukemia): > 100000 nM

CSc1ccc2c(c1)C(=O)c1c-2n(CCCN)c(=O)c2cc([N+](=O)[O-])ccc12
GI50 (RXF 393 renal): 1950 nM
TGI (RXF 393 renal): > 100000 nM
GI50 (HCT-116 colon): < 10 nM
TGI (HCT-116 colon): 173 nM
GI50 (NCI-H23 lung): < 10 nM
TGI (NCI-H23 lung): 158 nM
GI50 (SK-OV-3 ovarian): < 11.7 nM
TGI (SK-OV-3 ovarian): 1370 nM
GI50 (HOP-62 NSCLC): < 10 nM
TGI (HOP-62 NSCLC): 147 nM
GI50 (786-0 renal): 12.7 nM
TGI (786-0 renal): 108 nM
GI50 (M14 melanoma): 24.9 nM
TGI (M14 melanoma): 1070 nM
GI50 (DU-145 prostate): < 10 nM
TGI (DU-145 prostate): 160 nM
GI50 (SK-MEL-5 melanoma): 127 nM
TGI (SK-MEL-5 melanoma): 1630 nM
GI50 (ACHN renal): < 10 nM
TGI (ACHN renal): 327 nM
GI50 (HCT-15 colon): 96.2 nM
TGI (HCT-15 colon): 249 nM
GI50 (HCC-2998 colon): 104 nM
TGI (HCC-2998 colon): 581 nM
GI50 (MDA-MB-231 breast): 215 nM
TGI (MDA-MB-231 breast): 422 nM
GI50 (OVCAR-5 ovarian): 123 nM
TGI (OVCAR-5 ovarian): 872 nM
GI50 (SW-620 colon): < 10 nM
TGI (SW-620 colon): 209 nM
